The results in this text go back to patent US20080275224A1, “Cyanoborate, Fluoroalkylphosphate, Fluoroalkylborate or Imide Dyes” (priority 2003, published 2008).

As usually defined, the solubility is the concentration that dissolves in the medium under given conditions.

A value given as a limit tells only on which side of the number the result lay.

Data set [1] can be described thus: Solubility in organic solvents (statements in the description).
Data set [2] in a line: Solubility investigations of the dyes prepared in accordance with Examples 31 to 34.
A short description of the next data set: physchem. To be noted: water.
Where [3] appears, read: acetonitrile, organic solvent or mixture, Solubility, CH3CN.
Where [4] appears, read: dichloromethane, organic solvent or mixture, Solubility, CH2Cl2.
The mark [5] stands for this setting: ethanol, organic solvent or mixture, Solubility.

In the case of `CCN(CC)c1ccc2nc3ccc(N=Nc4ccc(N(C)C)cc4)cc3[n+](-c3ccccc3)c2c1.[Cl-]` [Janus Green Cl^−, Janus Green, reference compound], the Solubility in benzene result in data set [1] is “insoluble”.

For the molecule `CC[N+](CC)=c1ccc2nc3c(cc(N)c4ccccc43)oc-2c1` [Nile Blue [(C2F5)3PF3]^−] [Nile Blue as tris(pentafluoroethyl)trifluorophosphate], in data set [1] (listed as Nile Blue FAP), the Solubility in benzene result is reported as “soluble” and the “Solubility in dimethyl carbonate” value is on record as “readily or very readily soluble”.

In the case of `CC[N+](CC)=c1ccc2nc3c(cc(N)c4ccccc43)oc-2c1` [Nile Blue [B(CN)4]^−, Nile Blue as tetracyanoborate], in data set [1] (listed as Nile Blue CAB), the Solubility in benzene entry is on record as “soluble” and the “Solubility in dimethyl carbonate” value was “readily or very readily soluble”.

As for `CC[N+](CC)=c1ccc2nc3c(cc(N)c4ccccc43)oc-2c1` [Nile Blue [B(CF3)4]^−, Nile Blue as tetrakis(trifluoromethyl)borate], the Solubility in benzene entry in data set [1] (listed as Nile Blue FAB) was “soluble”. In addition, the “Solubility in dimethyl carbonate” value in data set [1] (listed as Nile Blue FAB) was “readily or very readily soluble”. The solubility result in data set [2] (Pentane) is “insoluble”; in data set [2] (setting [3]), greater than 2000 µg/mL; in data set [2] (setting [4]) it was greater than 5000 µg/mL; in data set [2] (setting [5]), greater than 3000 µg/mL; in data set [2] (water, Solubility, H2O) it was less than 10 µg/mL.

For the molecule `CCN(CC)c1ccc2nc3ccc(/N=N/c4ccc(N(C)C)cc4)cc3[n+](-c3ccccc3)c2c1` [Janus Green [(CF3SO2)2N]^−], the Solubility in benzene result in data set [1] is listed as “soluble”.

For `CC[N+](CC)=c1ccc2nc3c(cc(N)c4ccccc43)oc-2c1` [Nile Blue Hydrogensulfate anion, Nile Blue hydrogensulfate, reference compound], the Solubility in benzene entry in data set [1] is listed as “insoluble”. Besides, the “Solubility in dimethyl carbonate” value in data set [1] (listed as Nile Blue with hydrogensulfate as anion) is “insoluble”.

Regarding `CC[N+](CC)=c1ccc2nc3c(cc(N)c4ccccc43)oc-2c1` [Nile Blue [(CF3SO2)2N]^−], in data set [1] (listed as Nile Blue Im), the Solubility in benzene result is listed as “soluble” and the “Solubility in dimethyl carbonate” value was “readily or very readily soluble”.

For the molecule `Cc1cc2nc3cc(C)c(N)cc3[n+](-c3ccccc3)c2cc1N` [Safranine O [B(CF3)4]^−, safranine O as tetrakis(trifluoromethyl)borate], the solubility in the data set “physchem” is less than 10 µg/mL.

Turning to `CN(C)c1ccc(C(=C2C=CC(=[N+](C)C)C=C2)c2ccc(N(C)C)cc2)cc1` [Crystal Violet [B(CF3)4]^−, Crystal Violet as tetrakis(trifluoromethyl)borate], the solubility result in data set [2] (H2O) is “insoluble”; in data set [2] (Pentane) it was “insoluble”; in data set [2] (setting [3]) it was greater than 5000 µg/mL; in data set [2] (setting [4]), greater than 10000 µg/mL; in data set [2] (setting [5]), greater than 10000 µg/mL.
